Where a name gives a salt, the structure may show the parent alone. Read-outs that look alike come from different tables or passages of the source.

By Ki is commonly meant the equilibrium dissociation constant of an inhibitor or competing ligand from its target.

Experiment [1] concerns the target purified human plasma kallikrein (Homo sapiens (Human), UniProt P03952). Description: Plasma kallikrein enzyme inhibition assay (chromogenic substrate S-2302). Type of experiment: biochemical.
Procedure: The effectiveness of compounds of the present invention as inhibitors of the coagulation Factors XIa, VIIa, IXa, Xa, XIIa, plasma kallikrein or thrombin, can be determined using a relevant purified serine protease, respectively, and an appropriate synthetic substrate. The rate of hydrolysis of the chromogenic or fluorogenic substrate by the relevant serine protease was measured both in the absence and presence of compounds of the present invention. […] A decrease in the rate of absorbance or fluorescence change in the presence of inhibitor is indicative of enzyme inhibition. […] The results of this assay are expressed as the inhibitory constant, Ki.
Values of Ki were determined by allowing the protease to react with the substrate in the presence of the inhibitor.
The following relationships were used to calculate Ki values: (Vmax*S)/(Km+S); (vo−vs)/vs=I/(Ki(1+S/Km)) for a competitive inhibitor with one binding site; or vs/vo=A+((B−A)/1+((IC50/(I)n))); and Ki−IC50/((1+S/Km) for a competitive inhibitor where:
In experiment [2] the target is purified human Factor XIa (Homo sapiens (Human), UniProt P03951). Description: Factor XIa enzyme inhibition assay (chromogenic substrate S-2366).
purified human Factor XIa, sequence (P03951 388-625): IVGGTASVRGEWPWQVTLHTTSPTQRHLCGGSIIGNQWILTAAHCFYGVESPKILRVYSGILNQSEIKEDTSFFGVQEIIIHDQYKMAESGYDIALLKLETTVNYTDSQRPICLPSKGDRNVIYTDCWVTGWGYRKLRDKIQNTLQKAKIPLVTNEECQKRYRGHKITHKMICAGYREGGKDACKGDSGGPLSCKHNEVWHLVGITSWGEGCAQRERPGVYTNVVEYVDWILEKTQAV
purified human Factor XIa, sequence (P03951 19-387 partner): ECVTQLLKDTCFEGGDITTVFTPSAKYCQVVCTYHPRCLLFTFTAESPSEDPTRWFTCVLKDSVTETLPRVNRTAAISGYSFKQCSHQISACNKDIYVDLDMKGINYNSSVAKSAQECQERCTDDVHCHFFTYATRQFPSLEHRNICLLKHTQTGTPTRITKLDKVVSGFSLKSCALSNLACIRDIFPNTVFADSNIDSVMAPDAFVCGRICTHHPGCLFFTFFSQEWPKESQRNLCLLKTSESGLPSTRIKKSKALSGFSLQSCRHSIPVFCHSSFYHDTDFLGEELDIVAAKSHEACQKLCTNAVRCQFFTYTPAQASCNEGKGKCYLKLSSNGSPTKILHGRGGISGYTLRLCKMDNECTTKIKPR
[3] abbreviates: measured at 25° C. (no asterisk).
Setting [4] is: read-out: Factor XIa Ki, measured at 25° C.

purified human plasma kallikrein, sequence (P03952 391-638): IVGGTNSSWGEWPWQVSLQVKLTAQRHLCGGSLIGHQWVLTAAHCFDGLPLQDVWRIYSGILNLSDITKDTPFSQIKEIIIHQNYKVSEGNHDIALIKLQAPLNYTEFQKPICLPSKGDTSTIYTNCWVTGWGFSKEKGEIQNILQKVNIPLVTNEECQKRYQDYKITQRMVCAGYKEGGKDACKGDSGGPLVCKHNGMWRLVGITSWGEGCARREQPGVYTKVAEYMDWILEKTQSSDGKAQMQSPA
purified human plasma kallikrein, sequence (P03952 20-390 partner): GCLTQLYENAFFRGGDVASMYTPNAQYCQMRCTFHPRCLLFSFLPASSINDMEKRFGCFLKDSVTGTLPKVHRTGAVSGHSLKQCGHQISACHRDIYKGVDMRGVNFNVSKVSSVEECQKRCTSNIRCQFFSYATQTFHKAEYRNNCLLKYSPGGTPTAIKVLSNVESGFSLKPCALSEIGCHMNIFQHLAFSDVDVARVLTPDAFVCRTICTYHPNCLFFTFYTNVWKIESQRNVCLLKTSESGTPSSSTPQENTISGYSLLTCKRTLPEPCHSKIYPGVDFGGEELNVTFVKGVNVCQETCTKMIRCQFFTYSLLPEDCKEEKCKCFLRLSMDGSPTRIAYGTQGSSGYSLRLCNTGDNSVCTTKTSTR

As to `O=C(O)c1ccc(NC(=O)C2c3cccc(Cl)c3CCN2C(=O)c2cn(-c3cccc(Cl)c3F)nn2)cc1` (stereo not shown) [Example 194, 4-(5-Chloro-2-(1-(3-chloro-2-fluorophenyl)-1H-1,2,3-triazole-4-carbonyl)-1,2,3,4-tetrahydroisoquinoline-1-carboxamido)benzoic acid], the Ki in experiment [1] (setting [3]) was 41.5 nM; in experiment [2] it was 57.1 nM.

In the case of `CN(C)C1CCN(c2cccc3c2CCN(C(=O)c2cn(-c4cccc(Cl)c4F)nn2)C3C(=O)Nc2ccc(-c3cn[nH]c3)cc2)CC1` (stereo not shown) [Example 102, N-(4-(1H-Pyrazol-4-yl)phenyl)-2-(1-(3-chloro-2-fluorophenyl)-1H-1,2,3-triazole-4-carbonyl)-5-(4-(dimethylamino)piperidin-1-yl)-1,2,3,4-tetrahydroisoquinoline-1-carboxamide, bis-TFA salt], the Ki in experiment [1] (setting [3]) is 1.39 nM; in experiment [2] (setting [4]), less than 5 nM.

Take `Cc1c(C(=O)N2CCc3c(-c4ccc(C(=O)NCCN(C)C)cc4)cccc3C2C(=O)Nc2ccc(C(=O)O)cc2)nnn1-c1cccc(Cl)c1F` (stereo not shown) [Example 7, 4-(2-(1-(3-Chloro-2-fluorophenyl)-5-methyl-1H-1,2,3-triazole-4-carbonyl)-5-(4-((2-(dimethylamino)ethyl)carbamoyl)phenyl)-1,2,3,4-tetrahydroisoquinoline-1-carboxamido)benzoic acid, TFA salt]: the Ki was 29.9 nM in experiment [1] (setting [3]) and less than 5 nM in experiment [2] (setting [4]).

On to `Cn1nccc1-c1cccc2c1CCN(C(=O)c1cn(-c3cccc(Cl)c3F)nn1)C2C(=O)Nc1ccc(C(=O)O)cc1` (stereo not shown) [Example 42, 4-(2-(1-(3-chloro-2-fluorophenyl)-1H-1,2,3-triazole-4-carbonyl)-5-(1-methyl-1H-pyrazol-5-yl)-1,2,3,4-tetrahydroisoquinoline-1-carboxamido)benzoic acid], for which the Ki in experiment [1] (setting [3]) was 13.1 nM; in experiment [2], less than 5 nM.

For `COC1CCN(c2cccc3c2CCN(C(=O)c2cc(-c4cccc(Cl)c4F)ns2)C3C(=O)Nc2ccc(C(=O)O)cc2)CC1` (racemic) [Example 269, 4-(2-(3-(3-chloro-2-fluorophenyl)isothiazole-5-carbonyl)-5-(4-methoxypiperidin-1-yl)-1,2,3,4-tetrahydroisoquinoline-1-carboxamido)benzoic acid, TFA salt], the Ki in experiment [1] (setting [3]) worked out at 205 nM; in experiment [2], 33.5 nM.

With `COC(=O)c1ccc(NC(=O)[C@@H]2c3cccc(N4CCN(C5COC5)CC4)c3CCN2C(=O)[C@H]2CC(c3cccc(Cl)c3F)=NO2)cc1` [Example 232, Methyl 4-((S)-2-((R)-3-(3-chloro-2-fluorophenyl)-4,5-dihydroisoxazole-5-carbonyl)-5-(4-(oxetan-3-yl)piperazin-1-yl)-1,2,3,4-tetrahydroisoquinoline-1-carboxamido)benzoate, 2 TFA salt], the figures for the Ki in experiment [1] (measured at 37° C. (*)) and in experiment [2] (setting [4]) were 29.7 nM and 4130 nM, respectively.

On to `CCOC(=O)Cc1ccc(NC(=O)C2c3cccc(-c4ccc(C(=O)NC)nc4)c3CCN2C(=O)c2cn(-c3cccc(Cl)c3F)nn2)cc1` (stereo not shown) [Example 116, Ethyl 2-(4-(2-(1-(3-Chloro-2-fluorophenyl)-1H-1,2,3-triazole-4-carbonyl)-5-(6-(methylcarbamoyl)pyridin-3-yl)-1,2,3,4-tetrahydroisoquinoline-1-carboxamido)phenyl)acetate, TFA salt], for which the values for the Ki in experiment [1] (setting [3]) and in experiment [2] (setting [4]) were 128 nM and 13.6 nM, respectively.

As to `COC1CCN(c2cccc3c2CCN(C(=O)c2cn(-c4cccc(Cl)c4F)cn2)[C@H]3C(=O)Nc2ccc(C(=O)O)cc2)CC1` [Example 272, (R)-4-(2-(1-(3-chloro-2-fluorophenyl)-1H-imidazole-4-carbonyl)-5-(4-methoxypiperidin-1-yl)-1,2,3,4-tetrahydroisoquinoline-1-carboxamido)benzoic acid, TFA salt], the Ki was greater than 6000 nM in experiment [1] (measured at 37° C. (*)) and 976 nM in experiment [2] (setting [4]).

As to `CN1CCN(c2cccc3c2CCN(C(=O)c2cn(-c4cccc(Cl)c4F)cn2)C3C(=O)Nc2ccc(C(=O)O)cc2)CC1=O` (racemic) [Example 284, 4-(2-(1-(3-chloro-2-fluorophenyl)-1H-imidazole-4-carbonyl)-5-(4-methyl-3-oxopiperazin-1-yl)-1,2,3,4-tetrahydroisoquinoline-1-carboxamido)benzoic acid, TFA salt], the Ki in experiment [1] (setting [3]) was 6.25 nM; in experiment [2] it was less than 5 nM.

On to `CN1CCN(c2cccc3c2CCN(C(=O)c2cn(-c4cccc(Cl)c4)nn2)C3C(=O)Nc2ccc(C(=O)O)cc2)CC1` (stereo not shown) [Example 201, 4-(2-(1-(3-chlorophenyl)-1H-1,2,3-triazole-4-carbonyl)-5-(4-methylpiperazin-1-yl)-1,2,3,4-tetrahydroisoquinoline-1-carboxamido)benzoic acid, 2 TFA salt], for which the values for the Ki in experiment [1] (setting [3]) and in experiment [2] (setting [4]) were 4.21 nM and 9.88 nM, respectively.

`CC(=O)Nc1cccc2c1CCN(C(=O)c1cn(-c3cccc(Cl)c3F)nn1)C2C(=O)Nc1ccc(C(=O)O)cc1` (stereo not shown) [Example 191, 4-(5-Acetamido-2-(1-(3-chloro-2-fluorophenyl)-1H-1,2,3-triazole-4-carbonyl)-1,2,3,4-tetrahydroisoquinoline-1-carboxamido)benzoic acid]: the Ki worked out at 12.3 nM in experiment [1] (setting [3]) and 13.4 nM in experiment [2] (setting [4]).

On to `COc1ccc(NC(=O)C2c3cccc(N4CCC(N(C)C)CC4)c3CCN2C(=O)c2cnn(-c3cccc(Cl)c3F)c2)cc1` (stereo not shown) [Example 97, 2-(1-(3-chloro-2-fluorophenyl)-1H-pyrazole-4-carbonyl)-5-(4-(dimethylamino)piperidin-1-yl)-N-(4-methoxyphenyl)-1,2,3,4-tetrahydroisoquinoline-1-carboxamide, TFA salt], for which the Ki in experiment [1] (setting [3]) was 21.7 nM; in experiment [2] (setting [4]), 9.13 nM.

For the molecule “4-(2-(5-amino-1-(3-chloro- 2-fluorophenyl)-1H- pyrazole-4-carbonyl)-5-(4- methylpiperazin-1- yl)-1,2,3,4- tetrahydroisoquinoline-1- carboxamido)benzoic acid, 2 TFA salt [Example 212]”, the Ki in experiment [1] (setting [3]) turned out to be 2.89 nM; in experiment [2] (setting [4]), 20.9 nM.

With `CN(C)CCNC(=O)c1ccc(-c2cccc3c2CCN(C(=O)c2cn(-c4cccc(Cl)c4F)nn2)[C@@H]3C(=O)Nc2ccc(C(=O)O)cc2)cc1` [Example 10, (S)-4-(2-(1-(3-Chloro-2-fluorophenyl)-1H-1,2,3-triazole-4-carbonyl)-5-(4-((2-(dimethylamino)ethyl)carbamoyl)phenyl)-1,2,3,4-tetrahydroisoquinoline-1-carboxamido)benzoic acid, TFA salt], the Ki in experiment [1] (setting [3]) was 1.08 nM; in experiment [2] (setting [4]) it was less than 5 nM.

As for `COC1CCN(c2cccc3c2CCN(C(=O)[C@H]2CC(c4cccc(Cl)c4F)=NO2)[C@H]3C(=O)Nc2cccnc2)CC1` (single isomer, unassigned) [Example 242, TFA salt], the figures for the Ki in experiment [1] (measured at 37° C. (*)) and in experiment [2] were 1230 nM and 188 nM, respectively.

With `O=C(O)c1ccc(NC(=O)[C@@H]2c3cccc(-c4cncnc4)c3CCN2C(=O)c2cn(-c3cccc(Cl)c3F)nn2)cc1` [Example 14, (S)-4-(2-(1-(3-Chloro-2-fluorophenyl)-1H-1,2,3-triazole-4-carbonyl)-5-(pyrimidin-5-yl)-1,2,3,4-tetrahydroisoquinoline-1-carboxamido)benzoic acid], the Ki in experiment [1] (setting [3]) is 6.27 nM; in experiment [2] (setting [4]) it was less than 5 nM.

Regarding `CN(C)C1CCN(c2cccc3c2CCN(C(=O)c2cnn(-c4cccc(Cl)c4F)c2)[C@H]3C(=O)Nc2ccc(C(=O)O)cc2)CC1` (single isomer, unassigned) [Example 51, bis-TFA salt], the Ki came to 340 nM in experiment [1] (setting [3]) and 54.5 nM in experiment [2] (setting [4]).

These data come from patent US9738655B2, “Tetrahydroisoquinolines containing substituted azoles as factor XIa inhibitors” (BRISTOL-MYERS SQUIBB COMPANY, priority 2013, dated 2017).
